Here are results for one compound from US4668630A, “Stabilized enzymatic composition” (Beckman Instruments, Inc., priority 1984, dated 1987).

Each structure is given as a SMILES string. Where a name gives a salt, the structure may show the parent alone.

The test system of the assay is lactate dehydrogenase (LD). As to the kind of experiment: LD activity of serial dilution samples on Roche Cobas UV clinical analyzer. The assay is classed as biochemical, human. Particulars: Table II, 1-20 mg/ml KO2 CCO2 K in LD SEG. The procedure:
Aliquots of this base solution were diluted as shown in Table I with a LD SEG solution devoid of KO2 CCO2 K. The LD activity of each of the serial dilution samples was measured on a Roche Cobas brand UV clinical analyzer and the results are set forth in Table II.

With `O=C(O)C(=O)O` [KO2 CCO2 K, potassium oxalate], the “effect on LD activity (in words)” value is reported as “inhibition of LD activity”.
